Reference: ChEMBL document CHEMBL1221220, “Transport and signaling via the amino acid binding site of the yeast Gap1 amino acid transceptor” (Nat Chem Biol, 2009)
Positions count from the first letter of the chain named. The source made the active and inactive calls. The calls are words filed in the database; no cut-off is given here.

Columns and labels:
[1] = system: T1, General amino-acid permease GAP1 (Saccharomyces cerevisiae), P19145 [V381C]; assay: Induction of yest Gap1 V381C mutant-mediated trehalose activation at 10 mM
T1 sequence (whole entry): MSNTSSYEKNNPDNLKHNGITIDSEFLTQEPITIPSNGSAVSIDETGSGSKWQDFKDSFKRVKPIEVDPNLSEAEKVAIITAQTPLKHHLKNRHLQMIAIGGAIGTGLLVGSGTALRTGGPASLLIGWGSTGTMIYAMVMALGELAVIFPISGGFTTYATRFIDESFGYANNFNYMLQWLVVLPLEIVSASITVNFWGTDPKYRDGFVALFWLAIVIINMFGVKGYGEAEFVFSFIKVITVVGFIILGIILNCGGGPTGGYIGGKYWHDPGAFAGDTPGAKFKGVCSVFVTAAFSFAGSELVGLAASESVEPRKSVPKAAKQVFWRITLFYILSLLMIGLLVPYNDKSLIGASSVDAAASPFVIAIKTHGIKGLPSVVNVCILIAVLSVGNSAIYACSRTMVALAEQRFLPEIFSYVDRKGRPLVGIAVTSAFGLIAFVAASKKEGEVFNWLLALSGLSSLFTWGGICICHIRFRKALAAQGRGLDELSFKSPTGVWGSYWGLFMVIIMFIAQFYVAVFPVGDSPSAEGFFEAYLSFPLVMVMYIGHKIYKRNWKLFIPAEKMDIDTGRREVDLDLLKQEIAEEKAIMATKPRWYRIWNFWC

[2] = system: T2, General amino-acid permease GAP1 (Saccharomyces cerevisiae), P19145 [I384C]; assay: Activation of yeast Gap1 I384C mutant-mediated amino acid uptake at 10 mM
T2 sequence (whole entry): T1 sequence (whole entry) with C381V, I384C

[3] = system: T3, General amino-acid permease GAP1 (Saccharomyces cerevisiae), P19145 [N391C]; assay: Activation of yeast Gap1 N391C mutant-mediated amino acid uptake at 10 mM
T3 sequence (whole entry): T1 sequence (whole entry) with C381V, N391C

Saccharomyces cerevisiae [4] = assay: Induction of yeast Gap1 L404 mutant-mediated amino acid uptake at 2 mM in presence of 10 mM MTSEA treated before compound addition
[5] = system: T4, General amino-acid permease GAP1 (Saccharomyces cerevisiae), P19145 [L387C]; assay: Activation of yeast Gap1 L387C mutant-mediated amino acid uptake at 10 mM
T4 sequence (whole entry): T1 sequence (whole entry) with C381V, L387C

[6] = system: T4, General amino-acid permease GAP1 (Saccharomyces cerevisiae), P19145 [L387C]; assay: Induction of yeast Gap1 L387C mutant-mediated trehalose activation at 2 mM in presence of 10 mM MTSEA treated before compound addition
Saccharomyces cerevisiae [7] = assay: Activation of yeast Gap1 L404 mutant-mediated amino acid uptake at 10 mM
[8] = system: General amino-acid permease GAP1 (Saccharomyces cerevisiae), P19145 [V389C]; assay: Induction of yeast Gap1 V389C mutant-mediated amino acid uptake at 2 mM in presence of 10 mM MTSEA treated before compound addition
General amino-acid permease GAP1 (Saccharomyces cerevisiae), P19145 [V389C], sequence (P19145 whole entry V389C): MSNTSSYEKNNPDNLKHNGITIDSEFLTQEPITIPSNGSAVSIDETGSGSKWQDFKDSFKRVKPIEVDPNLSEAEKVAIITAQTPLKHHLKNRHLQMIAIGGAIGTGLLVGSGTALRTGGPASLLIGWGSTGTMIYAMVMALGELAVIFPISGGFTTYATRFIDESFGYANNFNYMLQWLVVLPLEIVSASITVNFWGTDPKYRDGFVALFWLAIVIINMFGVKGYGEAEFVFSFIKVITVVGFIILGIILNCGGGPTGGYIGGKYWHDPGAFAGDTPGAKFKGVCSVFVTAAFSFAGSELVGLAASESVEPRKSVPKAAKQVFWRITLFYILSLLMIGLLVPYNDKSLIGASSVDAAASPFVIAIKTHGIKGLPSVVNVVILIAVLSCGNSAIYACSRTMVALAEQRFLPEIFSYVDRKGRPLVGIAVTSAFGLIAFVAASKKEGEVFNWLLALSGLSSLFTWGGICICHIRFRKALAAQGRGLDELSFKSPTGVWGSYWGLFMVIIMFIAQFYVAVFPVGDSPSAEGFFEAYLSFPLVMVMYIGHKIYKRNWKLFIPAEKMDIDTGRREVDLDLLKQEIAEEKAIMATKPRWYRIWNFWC

SMILES: NC(=O)NCCC[C@H](N)C(=O)O
- Activity [1]: inactive
- Activity [2]: inactive
- Activity [3]: inactive
- Activity (Saccharomyces cerevisiae [4]): Active
- Activity [5]: inactive
- inhibition [6]: Active
- Activity (Saccharomyces cerevisiae [7]): inactive
- inhibition [8]: inactive
